Data reported in patent US9133219B2, “Bicyclic antibiotics” (Basilea Pharmaceutica AG, priority 2009, dated 2015).
≈ marks a conversion by molar mass, not a printed value. Like-named read-outs stand apart in the source and are kept apart here.

What was measured:
Assay type in all cases: cell-based
[1] = tested on: Staphylococcus epidermidis; test: Anti-microbial activity assay, MIC by broth microdilution; settings: strain ATCC14990; for MIC: Staphylococcus epidermidis
Description: (§1) Anti-Microbial Activity Assay.
(§2) The antibacterial activity of compounds is determined by the minimal inhibitory concentration (MIC) method. MICs for all bacteria except pneumococci and Haemophilus influenzae are obtained by broth microdilution with cation-adjusted Mueller-Hinton broth (CAMHB; BBL), according to CLSI guidelines (National Committee for Clinical Laboratory Standards. 2003. Methods for dilution antimicrobial susceptibility tests for bacteria that grow aerobically, 5th ed.; approved standard M7-A6. National Committee for Clinical Laboratory Standards, Wayne, Pa.), with the following modifications: (i) for pneumococci CAMHB is supplemented with 5% (^v/v) horse serum; (ii) for Haemophilus influenzae CAMHB is supplemented with 5% (^v/v) Fildes enrichment (BBL) (Pankuch, G. A., Hoellman, D. B., Lin, G., Bajaksouzian, S., Jacobs, M. R., and Appelbaum, P. C. 1998. Activity of HMR 3647 compared to those of five agents against Haemophilus influenzae and Moraxella catarrhalis by MIC determination and time-kill assay. Antimicrob. Agents Chemother. 42:3032-3034). Microtiter plates are incubated at 35° C. in ambient air for 20 to 24 h, then inspected using an illuminated microtiter plate reader fitted with a magnifying mirror (MIC 2000; Cooke Laboratory Products, Alexandria, Va.). Compounds of the present invention are tested against several bacteria strains comprising some Acinetobacter baumannii, Enterococcus faecalis, Enterococcus faecitan, Escherichia coli, Haemophilus influenzae, Klebsiella pneumoniae, Pseudomonas aeruginosa, Staphylococcus aureus, Staphylococcus epidermidis and Streptococcus pneumoniae.

[2] = tested on: Staphylococcus aureus; test: as above; settings: for MIC: Staphylococcus aureus
Description: as §1, §2

[3] = tested on: Escherichia coli; test: as above; settings: for MIC: Escherichia coli
Description: as §1, §2

[4] = tested on: Staphylococcus aureus and/or Staphylococcus epidermidis; test: MIC summary statement, staphylococci; settings: generally, for Staphylococcus aureus and/or Staphylococcus epidermidis
Description: as §1, §2

[5] = tested on: Streptococcus pneumoniae; test: Anti-microbial activity assay, MIC by broth microdilution (CAMHB with 5% horse serum); settings: for MIC: Streptococcus pneumoniae
Description: as §1, §2

[6] = strain ATCC29213, read-out: MIC Staphylococcus aureus ATCC29213
[7] = strain UB1005, read-out: MIC Escherichia coli UB1005
[8] = strain ATCC49619, CAMHB with 5% horse serum, read-out: MIC Streptococcus pneumoniae ATCC49619
[9] = strain ATCC49619, CAMHB with 5% horse serum
[10] = S. aureus ATCC29213, comparison of C4 and C3 position of the methoxyquinoline, same side chain, read-out: MIC
[11] = E. coli UB1005, comparison of C4 and C3 position of the methoxyquinoline, same side chain, read-out: MIC
[12] = S. pneumoniae ATCC49619, comparison of C4 and C3 position of the methoxyquinoline, same side chain, read-out: MIC

Row | SMILES | MIC [1] | MIC [2, 6] | MIC [3, 7] | MIC [5, 8] | also measured
1 | COc1ccc2ncc(OCCN3CCC(NC(=O)c4ccc5c(c4)NC(=O)CS5)CC3)nc2c1 [Example 1, 3-oxo-3,4-dihydro-2H-benzo[1,4]thiazine-6-carboxylic acid {1-[2-(7-methoxy-quinoxalin-2-yloxy)-ethyl]-piperidin-4-yl}-amide] | ≤ 2 µg/mL | ≤ 2 µg/mL | 8 µg/mL (≈ 16.2 µM) | 4 µg/mL (≈ 8.1 µM) | MIC [4]: ≤ 2 µg/mL
2 | COc1ccc2ncc(OCC[C@H]3CC[C@H](NC(=O)c4ccc5c(n4)NC(=O)CO5)CC3)cc2n1 [Example 3, 3-oxo-3,4-dihydro-2H-pyrido[3,2-b][1,4]oxazine-6-carboxylic acid {trans-4-[2-(6-methoxy-[1,5]naphthyridin-3-yloxy)-ethyl]-cyclohexyl}-amide] | ≤ 2 µg/mL | ≤ 2 µg/mL | > 32 µg/mL | 16 µg/mL (≈ 33.5 µM) | MIC [4]: ≤ 2 µg/mL
3 | COc1ccc2ncc(OCC[C@H]3CC[C@H](NC(=O)c4ccc5c(c4)NC(=O)CS5)CC3)nc2c1 [Example 4, 3-oxo-3,4-dihydro-2H-benzo[1,4]thiazine-6-carboxylic acid {trans-4-[2-(7-methoxy-quinoxalin-2-yloxy)-ethyl]-cyclohexyl}-amide] | ≤ 2 µg/mL | ≤ 2 µg/mL | > 32 µg/mL | > 32 µg/mL | MIC [4]: ≤ 2 µg/mL
4 | COc1ccc2ncc(OCC[C@H]3CC[C@H](NC(=O)c4ccc5c(c4)NC(=O)CO5)CC3)cc2n1 [Example 6, 3-oxo-3,4-dihydro-2H-benzo[1,4]oxazine-6-carboxylic acid {trans-4-[2-(6-methoxy-[1,5]naphthyridin-3-yloxy)-ethyl]-cyclohexyl}-amide] | ≤ 2 µg/mL | ≤ 2 µg/mL | > 32 µg/mL | 4 µg/mL (≈ 8.39 µM) | MIC [4]: ≤ 2 µg/mL
5 | COc1ccc2ncc(OCCN3CCC(N(C)Cc4ccc5c(c4)OCCO5)CC3)nc2c1 [Example 10, (2,3-dihydro-benzo[1,4]dioxin-6-ylmethyl)-{1-[2-(7-methoxy-quinoxalin-2-yloxy)-ethyl]-piperidin-4-yl}-methyl-amine] | 8 µg/mL (≈ 17.2 µM) | 4 µg/mL (≈ 8.61 µM) | > 32 µg/mL | 8 µg/mL (≈ 17.2 µM) | –
6 | CCC(Oc1cnc2ccc(OC)cc2n1)N1CCCC(NCc2ccc3c(c2)NC(=O)CS3)C1 (centres unmarked) [Example 11, 6-({1-[1-(7-methoxy-quinoxalin-2-yloxy)-propyl]-piperidin-3-ylamino}-methyl)-4H-benzo[1,4]thiazin-3-one] | 4 µg/mL (≈ 8.1 µM) | 4 µg/mL (≈ 8.1 µM) | 16 µg/mL (≈ 32.4 µM) | 4 µg/mL (≈ 8.1 µM) | –
7 | COc1cccc2ncc(OCCN3CCC(NC(=O)c4ccc5c(c4)NC(=O)CS5)CC3)nc12 [Example 12, 3-oxo-3,4-dihydro-2H-benzo[1,4]thiazine-6-carboxylic acid {1-[2-(8-methoxy-quinoxalin-2-yloxy)-ethyl]-piperidin-4-yl}-amide] | 4 µg/mL (≈ 8.1 µM) | 4 µg/mL (≈ 8.1 µM) | ≥ 32 µg/mL | 16 µg/mL (≈ 32.4 µM) | –
8 | O=C1CSc2ccc(C(=O)NC3CCN(CCOc4cnc5ccc([N+](=O)[O-])cc5n4)CC3)cc2N1 [Example 13, 3-oxo-3,4-dihydro-2H-benzo[1,4]thiazine-6-carboxylic acid {1-[2-(7-nitro-quinoxalin-2-yloxy)-ethyl]-piperidin-4-yl}-amide] | > 32 µg/mL | 4 µg/mL (≈ 7.87 µM) | > 32 µg/mL | > 32 µg/mL | –
9 | COc1ccc2ncc(OCCN3CCC(NC(=O)c4ccc5c(c4)NC(=O)CS5)CC3)nc2c1 [Example 21, 3-oxo-3,4-dihydro-2H-benzo[1,4]thiazine-6-carboxylic acid {1-[2-(7-methoxy-quinoxalin-2-yloxy)-ethyl]-piperidin-4-yl}-amide] | – | – | – | – | MIC Staphylococcus epidermidis ATCC14990 [1]: 16 µg/mL (≈ 32.4 µM); MIC Staphylococcus aureus ATCC29213 ([2]; strain ATCC29213): 8 µg/mL (≈ 16.2 µM); MIC Escherichia coli UB1005 ([3]; strain UB1005): ≧32 mg/L; MIC Streptococcus pneumoniae ATCC49619 [5, 9]: >32 µg/mL
10 | COc1ccc2ncc(OCCN3CC(NC(=O)c4ccc5c(c4)NC(=O)CS5)C3)nc2c1 [Example 22, 3-oxo-3,4-dihydro-2H-benzo[1,4]thiazine-6-carboxylic acid {1-[2-(7-methoxy-quinoxalin-2-yloxy)-ethyl]-azetidin-3-yl}-amide] | 4 µg/mL (≈ 8.59 µM) | 4 µg/mL (≈ 8.59 µM) | 16 µg/mL (≈ 34.4 µM) | 32 µg/mL (≈ 68.7 µM) | –
11 | COc1ccc2ncc(OCCCN3CCC(NC(=O)c4ccc5c(c4)NC(=O)CS5)C3)nc2c1 (centres unmarked) [Example 23] | – | – | – | – | MIC Staphylococcus epidermidis ATCC14990 [1]: 4 µg/mL (≈ 8.1 µM); MIC Staphylococcus aureus ATCC29213 ([2]; strain ATCC29213): 4 µg/mL (≈ 8.1 µM); MIC Escherichia coli UB1005 ([3]; strain UB1005): 16 µg/mL (≈ 32.4 µM); MIC Streptococcus pneumoniae ATCC49619 [5, 9]: 16 µg/mL (≈ 32.4 µM)
12 | COc1ccc2ncc(OCCN3CCC(CNC(=O)c4cc5c(cc4Cl)SCC(=O)N5)CC3)nc2c1 [Example 24, 7-chloro-3-oxo-3,4-dihydro-2H-benzo[1,4]thiazine-6-carboxylic acid {1-[2-(7-methoxy-quinoxalin-2-yloxy)-ethyl]-piperidin-4-ylmethyl}-amide] | 8 µg/mL (≈ 14.8 µM) | 8 µg/mL (≈ 14.8 µM) | 4 µg/mL (≈ 7.38 µM) | 16 µg/mL (≈ 29.5 µM) | –
13 | COc1ccc2ncc(OCCN3CCC(N(C)Cc4ccc5c(c4)NC(=O)CS5)CC3)nc2c1 [Example 25, 6-[({1-[2-(7-methoxy-quinoxalin-2-yloxy)-ethyl]-piperidin-4-yl}-methyl-amino)-methyl]-4H-benzo[1,4]thiazin-3-one] | 16 µg/mL (≈ 32.4 µM) | 8 µg/mL (≈ 16.2 µM) | 8 µg/mL (≈ 16.2 µM) | 16 µg/mL (≈ 32.4 µM) | –
14 | COc1ccc2ncc(OCCN3CCC(CNC(=O)c4cc(-c5cccs5)on4)C3)nc2c1 (centres unmarked) [Example 26, 5-thiophen-2-yl-isoxazole-3-carboxylic acid {1-[2-(7-methoxy-quinoxalin-2-yloxy)-ethyl]-pyrrolidin-3-ylmethyl}-amide] | 16 µg/mL (≈ 33.4 µM) | 4 µg/mL (≈ 8.34 µM) | > 32 µg/mL | 8 µg/mL (≈ 16.7 µM) | –
15 | COc1ccc2ncc(OCCCN3CCC(CNC(=O)c4cc5c(cc4Cl)SCCN5)C3)nc2c1 (centres unmarked) [Example 27, 7-chloro-3,4-dihydro-2H-benzo[1,4]thiazine-6-carboxylic acid {1-[3-(7-methoxy-quinoxalin-2-yloxy)-propyl]-pyrrolidin-3-ylmethyl}-amide] | 32 µg/mL (≈ 60.6 µM) | 8 µg/mL (≈ 15.1 µM) | 16 µg/mL (≈ 30.3 µM) | 32 µg/mL (≈ 60.6 µM) | –
16 | COc1ccc2ncc(C(=O)OC[C@H]3CC[C@H](N(C)Cc4ccc5c(c4)OCCO5)CC3)cc2c1 [Example 32, 6-methoxy-quinoline-3-carboxylic acid trans-4-[(2,3-dihydro-benzo[1,4]dioxin-6-ylmethyl)-methyl-amino]-cyclohexylmethyl ester] | 16 µg/mL (≈ 33.6 µM) | 8 µg/mL (≈ 16.8 µM) | > 32 µg/mL | 32 µg/mL (≈ 67.1 µM) | –
17 | COc1ccc2ncc(C(=O)OC[C@H]3CC[C@H](NCc4ccc5c(c4)OCCO5)CC3)cc2c1 [Example 33, 6-methoxy-quinoline-3-carboxylic acid trans-4-[(2,3-dihydro-benzo[1,4]dioxin-6-ylmethyl)-amino]-cyclohexylmethyl ester] | 8 µg/mL (≈ 17.3 µM) | 4 µg/mL (≈ 8.65 µM) | > 32 µg/mL | 8 µg/mL (≈ 17.3 µM) | –
18 | CCN(Cc1ccc2c(c1)OCCO2)[C@H]1CC[C@H](COC(=O)c2cnc3ccc(OC)cc3c2)CC1 [Example 34, 6-methoxy-quinoline-3-carboxylic acid trans-4-[(2,3-dihydro-benzo[1,4]dioxin-6-ylmethyl)-ethyl-amino]-cyclohexylmethyl ester] | > 32 µg/mL | 8 µg/mL (≈ 16.3 µM) | > 32 µg/mL | > 32 µg/mL | –
19 | COc1ccc2ncc(SCCN3CCC(NCc4ccc5c(c4)NC(=O)CO5)CC3)nc2c1 [Example 40] | – | – | – | – | MIC Staphylococcus epidermidis ATCC14990 [1]: ≦2 mg/L; MIC Staphylococcus aureus ATCC29213 ([2]; strain ATCC29213): ≦2 mg/L; MIC Escherichia coli UB1005 ([3]; strain UB1005): ≦2 mg/L; MIC Streptococcus pneumoniae ATCC49619 [5, 9]: ≦2 mg/L
20 | COc1ccc2nccc(OC[C@H]3CC[C@H](NCc4ccc5c(c4)OCCO5)CC3)c2c1 [reference compound] | – | – | – | – | MIC [2, 10]: 0.5 µg/mL (≈ 1.15 µM); MIC [3, 11]: 16 µg/mL (≈ 36.8 µM); MIC [5, 12]: 0.5 µg/mL (≈ 1.15 µM)
21 | COc1ccc2nccc(OC[C@H]3CC[C@H](NCc4ccc5c(c4)NC(=O)CO5)CC3)c2c1 [reference compound] | – | – | – | – | MIC [2, 10]: 1 µg/mL (≈ 2.23 µM); MIC [3, 11]: 1 µg/mL (≈ 2.23 µM); MIC [5, 12]: 2 µg/mL (≈ 4.47 µM)
22 | COc1ccc2ncc(OC[C@H]3CC[C@H](NCc4ccc5c(c4)OCCO5)CC3)cc2c1 [reference compound] | – | – | – | – | MIC [2, 10]: > 32 µg/mL; MIC [3, 11]: > 32 µg/mL; MIC [5, 12]: 32 µg/mL (≈ 73.6 µM)
23 | COc1ccc2ncc(OC[C@H]3CC[C@H](NCc4ccc5c(c4)NC(=O)CO5)CC3)cc2c1 [reference compound] | – | – | – | – | MIC [2, 10]: > 32 µg/mL; MIC [3, 11]: > 32 µg/mL; MIC [5, 12]: 32 µg/mL (≈ 71.5 µM)
